Source: patent publication US8299035B2, “10a-azalide compound having 4-membered ring structure” (Taisho Pharmaceutucal Co., Ltd., priority 2008, dated 2012)
Converted amounts (≈) assume the structure as drawn.

How the values were obtained:
Assay in all cases: In vitro antibacterial activity, microbroth dilution method (CLSI method)
Assay type in all cases: cell-based
H. influenzae ATCC 43095 = settings: bacteria symbol A = H. influenzae ATCC 43095
Experimental: (§1) In vitro antibacterial activities of the compounds of the present invention against various test bacteria were measured according to the microbroth dilution method (CLSI method). The exemplary compounds shown in Table 9 and the comparative agent 1, clarithromycin, were used as test substances. The results are shown as MIC values (minimum inhibitory concentration, μg/ml) in Table 9. [table]

S. pneumoniae ATCC 49619 = settings: bacteria symbol C = S. pneumoniae ATCC 49619
Experimental: as §1

H. influenzae Rd = settings: bacteria symbol B = H. influenzae Rd
Experimental: as §1

[1] = system: S. pneumoniae ATCC 700904; settings: bacteria symbol D = S. pneumoniae ATCC 700904
Experimental: as §1

| SMILES | MIC values (minimum inhibitory concentration) (H. influenzae ATCC 43095) | MIC values (minimum inhibitory concentration) (S. pneumoniae ATCC 49619) | MIC values (minimum inhibitory concentration) (H. influenzae Rd) | MIC values (minimum inhibitory concentration) [1] | MIC (H. influenzae ATCC 43095; Haemophilus influenzae, ATCC43095, read-out: MIC values (minimum inhibitory concentration)) | MIC (S. pneumoniae ATCC 49619; Streptococcus pneumoniae, ATCC49619, read-out: MIC values (minimum inhibitory concentration)) | MIC (H. influenzae Rd; Haemophilus influenzae, read-out: MIC values (minimum inhibitory concentration)) | MIC ([1]; Streptococcus pneumoniae, ATCC700904, read-out: MIC values (minimum inhibitory concentration)) |
| --- | --- | --- | --- | --- | --- | --- | --- | --- |
| CO[C@]1(C)C[C@H](O[C@H]2[C@H](C)[C@@H](O[C@@H]3O[C@H](C)C[C@H](N(C)C)[C@H]3O)[C@@](C)(OC)C[C@@H](C)[C@H](O)[C@H](C)N3CC(C3)OC(=O)[C@@H]2C)O[C@@H](C)[C@@H]1O (mixture of isomers) [Example 1] | 0.5 µg/mL | 0.12 µg/mL | 1 µg/mL | >128 µg/mL | – | – | – | – |
| CC[C@H]1OC(=O)[C@H](C)[C@@H](O[C@H]2C[C@@](C)(OC)[C@@H](O)[C@H](C)O2)[C@H](C)[C@@H](O[C@@H]2O[C@H](C)C[C@H](N(C)C)[C@H]2O)[C@](C)(OC)C[C@@H](C)C(=O)[C@H](C)[C@@H](O)[C@]1(C)O [Comparative agent 1, clarithromycin, reference compound] | – | – | – | – | 4 µg/mL (≈ 5.35 µM) | 0.03 µg/mL (≈ 0.0401 µM) | 8 µg/mL (≈ 10.7 µM) | > 128 µg/mL |
| CCN(CCNC(=O)O[C@H]1[C@H](C)O[C@@H](O[C@H]2[C@H](C)[C@@H](O[C@@H]3O[C@H](C)C[C@H](N(C)C)[C@H]3O)[C@@](C)(OC)C[C@@H](C)[C@H](O)[C@H](C)N3CC(C3)OC(=O)[C@@H]2C)C[C@@]1(C)OC)[C@@H](C)c1ccccc1OC [Example 2] | 4 µg/mL (≈ 4.27 µM) | 0.06 µg/mL (≈ 0.064 µM) | 8 µg/mL (≈ 8.54 µM) | 0.25 µg/mL (≈ 0.267 µM) | – | – | – | – |
| CCN(CCNC[C@@]1(O)[C@H](C)O[C@@H](O[C@H]2[C@H](C)[C@@H](O[C@@H]3O[C@H](C)C[C@H](N(C)C)[C@H]3O)[C@@](C)(OC)C[C@@H](C)[C@H](O)[C@H](C)N3CC(C3)OC(=O)[C@@H]2C)C[C@@]1(C)OC)[C@@H](C)c1ccccc1OC [Example 3] | 4 µg/mL (≈ 4.33 µM) | 0.03 µg/mL (≈ 0.0325 µM) | 4 µg/mL (≈ 4.33 µM) | 0.12 µg/mL (≈ 0.13 µM) | – | – | – | – |
| CCN(CCNC[C@@]1(O)[C@H](C)O[C@@H](O[C@H]2[C@H](C)[C@@H](O[C@@H]3O[C@H](C)C[C@H](N(C)C)[C@H]3O)[C@@](C)(OC)C[C@@H](C)C(=O)[C@H](C)N3CC(C3)OC(=O)[C@@H]2C)C[C@@]1(C)OC)[C@@H](C)c1ccccc1OC [Example 5] | 4 µg/mL (≈ 4.34 µM) | 0.03 µg/mL (≈ 0.0326 µM) | 8 µg/mL (≈ 8.68 µM) | 0.5 µg/mL (≈ 0.543 µM) | – | – | – | – |
| CCN(CCNC(=O)O[C@H]1[C@H](C)O[C@@H](O[C@H]2[C@H](C)[C@@H](O[C@@H]3O[C@H](C)C[C@H](N(C)C)[C@H]3O)[C@@](C)(O)C[C@@H](C)[C@H](O)[C@H](C)N3CC(C3)OC(=O)[C@@H]2C)C[C@@]1(C)OC)[C@@H](C)c1ccccc1OC [Example 12] | 8 µg/mL (≈ 8.67 µM) | 0.03 µg/mL (≈ 0.0325 µM) | 8 µg/mL (≈ 8.67 µM) | 0.25 µg/mL (≈ 0.271 µM) | – | – | – | – |
| COC1(C)CC(C)C(O)C(C)N2CC(C2)OC(=O)C(C)C(OC2CC(C)(OC)C(O)(CNCCNC(C)(C)c3cccc4c3ccn4C)C(C)O2)C(C)C1OC1OC(C)CC(N(C)C)C1O (stereo not shown) [Example 70] | 4 µg/mL (≈ 4.29 µM) | 0.12 µg/mL (≈ 0.129 µM) | 4 µg/mL (≈ 4.29 µM) | 0.25 µg/mL (≈ 0.268 µM) | – | – | – | – |
| COc1ccccc1C(C)(C)N(C)CCN(C)CC1(O)C(C)OC(OC2C(C)C(=O)OC3CN(C3)C(C)C(O)C(C)CC(C)(OC)C(OC3OC(C)CC(N(C)C)C3O)C2C)CC1(C)OC (stereo not shown) [Example 71] | 2 µg/mL (≈ 2.13 µM) | 0.03 µg/mL (≈ 0.032 µM) | 2 µg/mL (≈ 2.13 µM) | 0.12 µg/mL (≈ 0.128 µM) | – | – | – | – |
| CCN(CC(C)NCC1(O)C(C)OC(OC2C(C)C(=O)OC3CN(C3)C(C)C(O)C(C)CC(C)(OC)C(OC3OC(C)CC(N(C)C)C3O)C2C)CC1(C)OC)C(C)(C)c1ccccc1OC (stereo not shown) [Example 84] | 4 µg/mL (≈ 4.2 µM) | 0.016 µg/mL (≈ 0.0168 µM) | 4 µg/mL (≈ 4.2 µM) | 0.06 µg/mL (≈ 0.0631 µM) | – | – | – | – |
| CCN(CC(CO)NCC1(O)C(C)OC(OC2C(C)C(=O)OC3CN(C3)C(C)C(O)C(C)CC(C)(OC)C(OC3OC(C)CC(N(C)C)C3O)C2C)CC1(C)OC)C(C)c1ccccc1OC (stereo not shown) [Example 107] | 4 µg/mL (≈ 4.2 µM) | 0.03 µg/mL (≈ 0.0315 µM) | 4 µg/mL (≈ 4.2 µM) | 0.06 µg/mL (≈ 0.0629 µM) | – | – | – | – |
| COc1cccc2c1CN(CCN(C)CC1(O)C(C)OC(OC3C(C)C(=O)OC4CN(C4)C(C)C(O)C(C)CC(C)(OC)C(OC4OC(C)CC(N(C)C)C4O)C3C)CC1(C)OC)CC2 (stereo not shown) [Example 132] | 4 µg/mL (≈ 4.34 µM) | 0.06 µg/mL (≈ 0.0651 µM) | 8 µg/mL (≈ 8.68 µM) | 1 µg/mL (≈ 1.09 µM) | – | – | – | – |
| COc1cccc2c1CCCC2N(C)CCN(C)CC1(O)C(C)OC(OC2C(C)C(=O)OC3CN(C3)C(C)C(O)C(C)CC(C)(OC)C(OC3OC(C)CC(N(C)C)C3O)C2C)CC1(C)OC (stereo not shown) [Example 133] | 8 µg/mL (≈ 8.43 µM) | 0.12 µg/mL (≈ 0.126 µM) | 16 µg/mL (≈ 16.9 µM) | 0.5 µg/mL (≈ 0.527 µM) | – | – | – | – |
| COc1ccccc1C(C)(C)N(C)CC1CN(CC2(O)C(C)OC(OC3C(C)C(=O)OC4CN(C4)C(C)C(O)C(C)CC(C)(OC)C(OC4OC(C)CC(N(C)C)C4O)C3C)CC2(C)OC)C1 (stereo not shown) [Example 162] | 2 µg/mL (≈ 2.11 µM) | 0.03 µg/mL (≈ 0.0316 µM) | 2 µg/mL (≈ 2.11 µM) | 0.12 µg/mL (≈ 0.126 µM) | – | – | – | – |
| COC1(C)CC(C)C(O)C(C)N2CC(C2)OC(=O)C(C)C(OC2CC(C)(OC)C(O)(CN(C)CCN(C)C(C)c3ccccc3-c3ccccn3)C(C)O2)C(C)C1OC1OC(C)CC(N(C)C)C1O (stereo not shown) [Example 195] | 4 µg/mL (≈ 4.12 µM) | 0.03 µg/mL (≈ 0.0309 µM) | 8 µg/mL (≈ 8.24 µM) | 0.06 µg/mL (≈ 0.0618 µM) | – | – | – | – |
| COc1ccccc1C(C)(C)N(C)Cc1cncn1CC1(O)C(C)OC(OC2C(C)C(=O)OC3CN(C3)C(C)C(O)C(C)CC(C)(OC)C(OC3OC(C)CC(N(C)C)C3O)C2C)CC1(C)OC (stereo not shown) [Example 204] | 16 µg/mL (≈ 16.7 µM) | 0.03 µg/mL (≈ 0.0312 µM) | 16 µg/mL (≈ 16.7 µM) | 1 µg/mL (≈ 1.04 µM) | – | – | – | – |
| COc1ncccc1C(C)(C)N(C)CCN(C)C[C@@]1(O)[C@H](C)O[C@@H](O[C@H]2[C@H](C)[C@@H](O[C@@H]3O[C@H](C)C[C@H](N(C)C)[C@H]3O)[C@@](C)(O)C[C@@H](C)[C@H](O)[C@H](C)N3CC(C3)OC(=O)[C@@H]2C)C[C@@]1(C)OC [Example 221] | 8 µg/mL (≈ 8.66 µM) | 0.06 µg/mL (≈ 0.0649 µM) | 8 µg/mL (≈ 8.66 µM) | 1 µg/mL (≈ 1.08 µM) | – | – | – | – |
